Legend:
APP translation in SN = test: 35S-Met labeling and immunoprecipitation of newly synthesized APP in synaptoneurosomes; format: cell-based, mouse; details: WT SN
Description: WT and KO SNs (450 μl) were mixed with 25 μl Redivue Pro-Mix-L [^35S] for 5 min prior to stimulation with 25 μl 2 mM DHPG. Samples were flash frozen at the indicated times. To analyze new protein synthesis, SN lysates were cleared of free isotope, Percoll®, and sucrose by purification with the PAGEprep Advance kit according to the manufacturer's directions. Protein concentrations were determined by the BCA assay, and 15 μg protein was denatured and loaded per lane on 12% SDS gels for content analysis. Gels were dried and exposed to a phosphorimager screen to identify the results of these assays.
To specifically analyze APP synthesis, WT and KO SN lysates (500 μl) were immunoprecipitated with APP antibody. Briefly, SN lysates were precleared with protein A magnetic beads in 1 ml volumes containing 500 μl SNs, 500 μl 2×IP buffer (20 mM HEPES (pH 7.4), 400 mM NaCl, 60 mM EDTA (pH 8), and 2% Triton X-100), protease inhibitor cocktail, and 100 μl packed fresh protein A magnetic beads. For the immunoprecipitations, 10 μg anti-APP antibody (Zymed catalog number 51-2700) and fresh protein A magnetic beads were added and mixed overnight at 4° C. The beads were washed three times with IP buffer, and the final, washed pellets were suspended in 40 μl 2×SDS sample buffer and boiled for 5 min; the proteins were then separated on 12% SDS gels. The gels were transferred to a nitrocelluose membrane, dried, exposed to a phosphorimager screen, and scanned on a STORM 860 phosphorimager (Molecular Dynamics http://www6.amershambiosciences.com). APP bands at 120 kDa were quantitated with ImageQuant software (GE Healthcare Life Sciences, http://www4.amershambiosciences.com).
For mGluR5 inhibitor studies, SNs (425 μl) were preincubated with 25 μl anisomycin (40 μM final concentration) or MPEP (10 μM final concentration) for 10 min prior to the addition of 25 μl ^35S-Met for 5 min and stimulation with DHPG (100 μM final concentration) for 15 min. Samples were processed as described in the preceding paragraph.
To further assess FMRP regulation of APP levels in brain, cortical SN were prepared from WT mice and overall protein synthesis analyzed in response to DHPG (100 μM)-induced mGluR5 activation. SN were metabolically active as assessed by ^35S-Met incorporation. […]
These conclusions were tested by assessing the effects on APP translation of contacting SN with a group 1 mGluR5 antagonist, 2-methyl-6-(phenylethynyl)-pyridine (MPEP). […] To assess the effect of MPEP, a specific mGluR5 antagonist, on DHPG stimulation of de novo APP synthesis, SN were pre-treated with 10 μM MPEP for 10 min prior to the addition of ^35S-Met for 5 min and stimulation with 100 μM DHPG for 15 min. ^35S-Met-labeled APP was immunoprecipitated with anti-APP antibodies and analyzed by SDS-PAGE. […]

[1] = tested on: dendritic APP in primary neuronal cells; test: Immunofluorescence confocal quantitation of dendritic APP in primary cortical neurons; format: cell-based, mouse
Description: Pregnant female mice at embryonic day 18 (E18) were anesthetized with halothane prior to decapitation and transfer of the uterine sac to ice-cold HBSS. […] Cells were counted by trypan blue dye exclusion and plated at 1.25×10^5 cells/ml on poly(D)-lysine-coated glass coverslips in 12-well tissue-culture dishes and cultured for 11 d at 37° C./5% CO2. Half of the culture medium was removed and replaced with fresh, warm medium on day 4. […] All washes and antibody dilutions were in PBS containing 2% FBS. […] Images were acquired with a Nikon C1 laser-scanning confocal microscope with EZ-C1 v2.20 software (Nikon, http://www.nikon.com) at 60× magnification. APP levels in the puncta of four to seven dendrites per sample were quantitated with IMAGE J software using the Analyze Particles function (minimum of 205 puncta analyzed per treatment) (Rasband, Image J, U.S. National Institutes of Health, http://rsb.info.nih.gov/ij; 1997-2006). Figures were assembled with Adobe Photoshop 8.0 (Adobe Systems, http://www.adobe.com). […] It was recognized that SN are a relatively crude preparation of pre- and post-synaptic dendrites that are contaminated with other cell types, such as astrocytes, which form synapses with neurons. Thus, primary E18 cortical neuron cultures were prepared from WT and Fmr-1 KO brains and dendritic APP levels assessed using an immunofluorescence assay. There was a 21% increase in the basal level of APP in untreated dendrites from Fmr-1 KO neurons compared to WT (FIG. 5B). […] Staining of dendritic puncta was analyzed by confocal microscopy and quantitated with Image J software using the Analyze Particles function (a minimum of 475 particles were analyzed per treatment) (Rasband, W. S., Image J, U.S. National Institutes of Health, http://rsb.info.nih.gov/ij; 1997-2006). Duplicate slides were stained for each treatment and the number and intensity of dendritic puncta from three areas of each slide were analyzed and averaged. All MPEP-treated samples were statistically different from untreated controls by t-test analyses (p<0.005) and expressed as standard error of the mean (SEM).

[2] = tested on: audiogenic seizures in Fmr-1 KO mice; details: intraperitoneal injections; cited from earlier work
[3] = tested on: anxiety phenotype in Fmr-1 KO mice; details: intraperitoneal injections; cited from earlier work
[4] = WT primary neuronal cells, 10 μM MPEP

Structure (SMILES) | increase in APP translation (APP translation in SN; 100 μM DHPG, 15 min) | increase in APP translation over control (APP translation in SN; 100 μM DHPG, 1 hr) | increase in dendritic APP levels ([1]; Fmr-1 KO cultures, DHPG 10 and 20 min) | increase in dendritic APP levels ([1]; WT neurons, 100 μM DHPG, 10 and 20 min) | effect on DHPG-mediated synthesis of APP (APP translation in SN; 10 μM MPEP pre-treatment 10 min, 100 μM DHPG 15 min) | decrease in dendritic APP (average particle intensity) ([1]; WT C57BL/6 primary neuronal cells, 10 μM MPEP, 15 min) | decrease in area of each particle [1, 4] | increase in number of particles in a defined area [1, 4] | decrease in dendritic APP at later times ([1]; WT primary neuronal cells, 10 μM MPEP, 4 hr and 1 day) | effect on audiogenic seizures [2] | effect on anxiety phenotype [3]
N[C@@H](C(=O)O)c1cc(O)cc(O)c1 (racemic) [DHPG, (R,S)-3,5-dihydroxyphenylglycine] | 2.7 fold | 1.6 fold | no increase | 18-25% |  |  |  |  |  |  | 
Cc1cccc(C#Cc2ccccc2)n1 [MPEP, 2-methyl-6-(phenylethynyl)pyridine] |  |  |  |  | blocked | 37% | 22% | 29% | persisted | reduce | reduce

— patent US20130149721A1, “Methods for Inhibiting Amyloid Precursor Protein and Beta-Amyloid Production and Accumulation” (WISCONSIN ALUMNI RESEARCH FOUNDATION, priority 2008, published 2013)
